From patent US20220281930A1, “COMPOSITIONS AND METHODS FOR THE TREATMENT OF PATHOLOGICAL PAIN AND ITCH” (DUKE UNIVERSITY, priority 2019, published 2022)

Tests used:
[1] = test system: KCC2 mRNA; assay: Secondary screen: KCC2 RT-qPCR in primary mouse neurons; assay type: cell-based; details: Natural Compounds; rank score
Method: The primary screen encompassed three levels of LUC measurements. The first level of screening yielded a total of 137 compounds with cut-off RLU>125% LUC activity. These 137 compounds were subject to second round of screening, which was carried out in duplicate independent assays to yield the top 103 compounds sorted for highest RLU. The 103 compounds were then subjected to a third round of screening carried out in duplicate independent assays to yield the top 40 compounds which were again ranked. The best 22 of these 40 compounds (ranked for highest RLU activity) were subjected to secondary screening: Cultured neurons were treated with the 22 compounds; RT-qPCR and Clomeleon imaging methodologies (Yeo et al., 2009, J Neurosci 29:14652-14662) were used to determine effects of compounds on KCC2 mRNA expression and [Cl—]i, respectively. Each compound was ranked based on composite scores from primary and secondary screening.
Total RNA was isolated from cultured cell samples using Directzol RNA miniprep kit (ZymoResearch). The protocol includes DNAse digestion to exclude genomic DNA from preparations. Total RNA (1 μg) was reverse transcribed using oligo primers (dT) and SuperScriptIII first-strand synthesis kit (Invitrogen). Gene expression was assessed by quantitative real-time PCR using 2×SYBR Green Master Mix (Qiagen) and a three-step cycling protocol (anneal at 60° C./elongate at 72° C., denature at 95° C.). Specificity of primers was verified by dissociation/melting curve for the amplicons when using SYBR Green as a detector. All reactions were performed in triplicates. The amount of target messenger RNA (mRNA) in the experimental group relative to that in the control was determined from the resulting fluorescence and threshold values (Ct) using the ΔΔCt method. βIII-tubulin was used as housekeeping gene.
oligodT-initiated reverse transcription of 1 μg total RNA, DNA-se treated, was subjected to RT-qPCR using primers specific for KCC2 for rat and KCC2 for human sequences, normalized for neuronal βIII-tubulin, as previously described (Yeo et al., 2009, J Neurosci 29:14652-14662). For cultured neurons, total RNA was extracted from pelleted cells, and for spinal cord tissue it was extracted from microdissected lumbar spinal cord dorsal horn.
To identify KCC2 gene expression enhancing compounds, cultured primary cortical neurons were cultured from KCC2-luciferase(LUC)-knockin (KCC2-LUCki) mice (Liedtke et al., 2013, Small 9:1066-1075; Yeo et al., 2013, Proc Natl Acad Sci USA 110:4315-4320) and used LUC metrics as readout for activity of the proximal KCC2 promoter (2.5 kB (Yeo et al., 2009, J Neurosci 29:14652-14662)), which drives LUC in this mouse transgenic line. A Z′ factor of 0.94 was obtained. This strategy will not select for long-range enhancers of KCC2 gene expression that act outside the 2.5 kB core KCC2 promoter. 1057 compounds, contained in two NCI libraries (FIG. 1), related to inhibition of growth of malignantly transformed cells were screened. Iterative screening followed by measurements of KCC2 mRNA (RT-qPCR) and intracellular chloride ([Cl—]i), using clomeleon chloride indicator protein (Kuner and Augustine, 2000, Neuron 27:447-459; Yeo et al., 2009, J Neurosci 29:14652-14662), led to decreasing numbers of confirmed and re-confirmed hits, and 4 “winner” compounds were selected (FIG. 1 and Table 3).

[2] = test system: DNFB chronic contact dermatitis model; assay: DNFB chronic contact dermatitis scratching behavior; assay type: in vivo, mouse; details: daily i.p. 30 mg/kg
Method: To assess scratching behavior as a behavioral correlate of itch, mice were shaved at the dorsal neck where topical application of 0.5% DNFB was applied (day 1). […] On day 12, mice were allowed to acclimate to a Plexiglas chamber for at least 30 mins before performing itch behavior test. Scratching behavior was recorded by a Panasonic video camera for a 30-min observation period. Hind limb scratching behavior directed toward the shaved area at the nape of neck was observed. One scratch is defined as a lifting of the hind limb toward the injection site and then a replacing of the limb back to the floor, regardless of how many scratching strokes take place between those two movements. Behavioral analysis was conducted by observers blinded to treatment procedure. DNFB-induced scratching behavior was recorded on day 12 for 1 h. […] Based on these findings, KP's anti-pruritic effects were assessed because inhibitory transmission in the SCDH plays an important role in chronic pruritus (Akiyama et al., 2015, Pain 156:1240-1246.; Bourane et al., 2015, Science 350:550-554; Braz et al., 2017, Prog Brain Res 231:87-105; Braz et al., 2014, J Clin Invest 124:3612-3616; Koch et al., 2018, Annual review of physiology 80:189-217; Mishra and Hoon, 2015, Handbook of experimental pharmacology 226:151-162).

[3] = test system: motor function and coordination of mice; assay: Rotarod assay; assay type: in vivo, mouse; details: 10, 30 mg/kg i.p.; one-time exception high-dose day 7
Method: For assessment in rotarod (RR), all animals received training prior to experiments; mice were placed on the RR apparatus set in an accelerating rotational speed mode (3-30 rpm, 300 s max) per trial. Following training, the average time to fall from the rotating cylinder over three trials was recorded as baseline latency (4-40 rpm, 300 s max/trial). Mice were injected daily with either vehicle or drug compounds before RR tests. Latency to fall was measured (4-40 rpm, 300 s max/trial (inter-trial interval is at least 15 min). The average latency to fall from the rod was recorded for each animal.
With these beneficial effects of KP on pathologic pain and itch, whether KP had undesirable effects on the CNS in terms of sedation, impairment of motor stamina, balance and coordination was assessed. […] Conditioned place preference was used to test whether KP (30 mg/kg; i.p.) can trigger brain reward mechanisms (Jackson et al., 2019, Psychopharmacology, 236(12):3593-3599; Sora et al., 1998, Proc Natl Acad Sci USA 95:7699-7704), and there were no such effects (FIG. 4F). […] In pathologic pain models, KP acts centrally to mediate analgesic effects, and thus relies on KCC2 chloride extrusion.

O=C1Cc2c([nH]c3ccc(Br)cc23)-c2ccccc2N1 [kenpaullone, 9-bromo-7,12-dihydro-indolo [3,2-d] [1]benzazepin-6(5H)-one]
RT-QPCR Score (triplicates) [1]: 2 | scratching behavior of sensitized sites [2]: significantly reduced robust scratching behavior | elapsed time on the rotarod [3]: does not affect motor stamina and coordination
